US20070218002A1, “Method for Detecting Alzheimer's Disease and other Forms of Dementia, and Measuring Their Progression” (priority 2004, published 2007)

System: glucose metabolism
Assay: [F-18]FDG PET, relative standardized uptake value
Type: in vivo, human
Settings: normalized to motor cortex
Description: All scans were performed with ECAT HR or ECAT HR+ scanners (Siemens-CTI, Knoxville, Tenn.). The subjects were in the supine position with the imaging plane parallel to the orbito-meatal line and with their eyes open and ears unoccluded. A 20 min transmission scan was performed to correct PET data for radiation attenuation. 320-550 MBq of a PET tracer was injected as a bolus injection via the in-dwelling venous catheter, and the consecutive dynamic head PET scans were performed for 1 hour with [F-18]FDG or for 2 hours with [F-18]MPPF or with [F-18]FDDNP.
All PET scans were decay corrected and reconstructed using filtered-back projection (Hann filter, 5 mm FWHM) with scatter and attenuation correction. The resulting images contained either 47 contiguous slices with 3.4 mm plane-to-pane separation (EXACT HR) or 63 contiguous slices with the plane-to-plane separation of 2.42 mm (EXACT HR+).
The dynamic [F-18]FDG PET images were summed (frames 30-60min) and the resulting image was used for the following analysis: ROIs were drawn bilaterally on transaxially oriented images on the gray matter signal in the frontal lobe, parietal lobe, lateral temporal lobe, and medial temporal lobe. In addition, one ROI was drawn on the posterior cingulated gyrus. ROIs were also drawn bilaterally on the motor cortex as a reference region. Values for each ROI were extracted and relative standardized uptake values were calculated for each region separately. The average of both ROIs from the same region was divided by the average of ROI values for the motor cortex. In a similar way, the ROI value for the posterior cingulated gyrus was normalized by the average value for motor cortex. Finally the global [F-18]FDG SUVR index was calculated for the parietal, medial temporal, and lateral temporal lobes.

With `OC[C@H]1OC(O)[C@H]([18F])[C@@H](O)[C@@H]1O` (stereo partly drawn) [[F-18]FDG, 2-deoxy-2-[F-18]fluoro-D-glucose] the “FDG mean SUVR ± 1 SD, Frontal Lobe” value (AD group) was 0.79 ± 0.07, the “FDG mean SUVR ± 1 SD, Global” value (AD group) was 0.66 ± 0.04 and the “FDG mean SUVR ± 1 SD, Lateral Temporal Lobe” value (AD group) was 0.66 ± 0.07. For the same compound, the “FDG mean SUVR ± 1 SD, Medial Temporal Lobe” value (AD group) was 0.66 ± 0.04, the “FDG mean SUVR ± 1 SD, Parietal Lobe” value (AD group) was 0.67 ± 0.09 and the “FDG mean SUVR ± 1 SD, Posterior Cingulate Gyrus” value (AD group) was 0.79 ± 0.11. The “FDG mean SUVR ± 1 SD, Frontal Lobe” value (CTRL group) was 0.95 ± 0.08, the “FDG mean SUVR ± 1 SD, Global” value (CTRL group) was 0.80 ± 0.04 and the “FDG mean SUVR ± 1 SD, Lateral Temporal Lobe” value (CTRL group) was 0.86 ± 0.06. The “FDG mean SUVR ± 1 SD, Medial Temporal Lobe” value (CTRL group) was 0.73 ± 0.02, the “FDG mean SUVR ± 1 SD, Parietal Lobe” value (CTRL group) was 0.89 ± 0.06 and the “FDG mean SUVR ± 1 SD, Posterior Cingulate Gyrus” value (CTRL group) was 1.05±0.09. For the same compound, the “FDG mean SUVR ± 1 SD, Posterior Cingulate Gyrus” value (CTRL group, listed as FDG) was 1.05 ± 0.09, the “FDG mean SUVR ± 1 SD, Frontal Lobe” value (MCI group) was 0.90 ± 0.02 and the “FDG mean SUVR ± 1 SD, Global” value (MCI group) was 0.77 ± 0.04. The “FDG mean SUVR ± 1 SD, Lateral Temporal Lobe” value (MCI group) was 0.81 ± 0.05, the “FDG mean SUVR ± 1 SD, Medial Temporal Lobe” value (MCI group) was 0.69 ± 0.03 and the “FDG mean SUVR ± 1 SD, Parietal Lobe” value (MCI group) was 0.84 ± 0.05. For the same compound, the “FDG mean SUVR ± 1 SD, Posterior Cingulate Gyrus” value (MCI group) was 0.89±0.06 and the “FDG mean SUVR ± 1 SD, Posterior Cingulate Gyrus” value (MCI group, listed as FDG) was 0.89 ± 0.06.
